Usually minimal effective dose stands for the lowest level tested that produced the effect sought.

Here are results for nine compounds from patent US20260274814A1, “THIENYL COMPOUNDS FOR THE TREATMENT OF A CENTRAL NERVOUS SYSTEM DISEASE OR DISORDER” (Coreterra Therapeutics, Inc., priority 2023, published 2026).

Structures can show the parent of a compound that is named as a salt. Bounds are passed on as bounds.

This test has as its system mice. The experiment in a line: Neuropharmacological Assay (SmartCube): automated behavioral signature of compound-treated mice compared with a database of reference drug classes. The class given is in vivo. As to conditions: for AG / AN / AP / HL / MS / PS / SH / AD / AX / CE / UK: probability that activity matches this class of agents, 3.0 mg/kg i.p., 15 min before test. From the text: Neurosci. 2011 Sep. 9; 5: 103 (doi: 10.3389/fnins.2011.00103) (“Roberds”). As reported in Roberds, because psychiatric diseases generally result from disorders of cell-cell communication or circuitry, intact systems are useful in detecting improvement in disease-relevant endpoints. These endpoints are typically behavioral in nature, often requiring human observation and interpretation. To facilitate testing of multiple compounds for behavioral effects relevant to psychiatric disease, PsychoGenics, Inc. (Tarrytown, NY, “PGI”) developed SmartCube™ an automated system in which behaviors of compound-treated mice are captured by digital video and analyzed with computer algorithms. (D. Brunner et al. Drug Discov. Today 2002, 7:S107-S112). PGI Analytical Systems uses data from SmartCube™ to compare the behavioral signature of a test compound to a database of behavioral signatures obtained using a large set of diverse reference compounds. (The composition of the database as well as validation of the method is further described in Roberds). In this way, the neuropharmacological effects of a test compound can be predicted by similarity to major classes of compounds, such as antipsychotics, anxiolytics and antidepressants.
The SmartCube™ system produces an activity signature indicating the probability that the activity of the test compound at the administered dose matches a given class of neuropharmacological agents. (See, e.g., Roberds, FIGS. 2 and 3). The test compound is simultaneously compared against multiple classes of agents; thus, a separate probability is generated for each behavioral effect measured (e.g., anxiolytic activity, analgesic activity, etc.). In table 2 below, these probabilities are reported for each behavioral effect measured as described in Table 1 below.
Provided compounds were dissolved in a mixture of Pharmasolve™ (N-methyl-2-pyrrolidone), polyethylene glycol and propylene glycol, and were injected i.p. 15 min. before the behavioral test. For each compound, injections were administered at 3 different doses. For each behavioral effect measured, results for the 3.0 mg/kg dose are presented. The potency of many of the compounds in the table was also determined in the SmartCube™ system. Test compounds were routinely examined at dose levels of 0.3, 1, 3 and 10 mg per kg (mpk), although the dose range was increased or decreased, if necessary, to obtain a full dose response curve. A compound's minimal effective dose (MED) is a measure of the compound's potency. The MED was defined as the dose (in mpk) having 45% or more total activity in SmartCube. If only one dose was tested, that dose is shown in the MED column of Table 2 even though the dose is not known to be the MED.

[1] abbreviates: dose having 45% or more total activity in SmartCube, i.p., if only one dose was tested, that dose is shown, hydrochloride.

Take `CNC1Cc2ccsc2C1.Cl` (single isomer, unassigned) [Compound 20, N-methyl-5,6-dihydro-4H-cyclopenta[b]thiophen-5-amine hydrochloride]: the AG entry is on record as “ND (^ <4%)”, the AN entry was “ND (^ <4%)”, the AP entry is on record as “+ (≥4%)” and the HL entry is “ND (^ <4%)”. Further, the MS entry is “ND (^ <4%)”, the PS entry is given as “ND (^ <4%)” and the SH entry was “ND (^ <4%)”. The “MED (minimal effective dose)” value under setting [1] was found to be 1.0 mpk. For the setting “hydrochloride, 3 mg/kg”, the AD result was “++++ (≥74%)”, the AX entry is on record as “+ (≥4%)”, the CE result was “+ (≥4%)” and the UK result is recorded as “ND (^ <4%)”.
As for `Cl.c1cc2c(s1)CC(N1CCOCC1)CC2` (single isomer, unassigned) [Compound 22, 4-(4,5,6,7-tetrahydrobenzo[b]thiophen-6-yl)morpholine hydrochloride], the AD result is given as “ND (^ <4%)”, the AG entry is recorded as “ND (^ <4%)”, the AN result is reported as “ND (^ <4%)” and the AP result is “ND (^ <4%)”. Further, the AX entry is given as “ND (^ <4%)”, the CE entry is “ND (^ <4%)”, the HL entry is “ND (^ <4%)” and the MS result is given as “ND (^ <4%)”. The PS result is listed as “ND (^ <4%)” and the SH entry is recorded as “ND (^ <4%)”. Where the note is “Mus musculus, ip, dose having 45% or more total activity in SmartCube, i.p., if only one dose was tested, that dose is shown, read-out: MED (minimal effective dose)”, the minimal effective dose is above 10 mg/kg. In addition, under “hydrochloride, 3 mg/kg”, the UK entry was “+ (≥4%)”.
For the compound `Cl.c1cc2c(s1)CC(N1CCOCC1)CC2` (single isomer, unassigned) [Compound 23, 4-(4,5,6,7-tetrahydrobenzo[b]thiophen-6-yl)morpholine hydrochloride], the AD entry is listed as “ND (^ <4%)”, the AG entry is recorded as “ND (^ <4%)”, the AN result is on record as “ND (^ <4%)” and the AP result is “ND (^ <4%)”. The AX result is “ND (^ <4%)”, the CE result is “ND (^ <4%)”, the HL result is on record as “ND (^ <4%)” and the MS entry is “ND (^ <4%)”. Further, the PS result was “ND (^ <4%)” and the SH result is reported as “ND (^ <4%)”. Also, the “MED (minimal effective dose)” value (dose having 45% or more total activity in SmartCube, i.p., if only one dose was tested, that dose is shown) is above 10 mpk. Also, under “hydrochloride, 3 mg/kg”, the UK entry was “ND (^ <4%)”.
Turning to `CNC1CCCc2ccsc2C1.Cl` (single isomer, unassigned) [Compound 25, N-methyl-5,6,7,8-tetrahydro-4H-cyclohepta[b]thiophen-7-amine hydrochloride], the AD result was “ND (^ <4%)”, the AG entry is reported as “ND (^ <4%)”, the AN result is given as “ND (^ <4%)” and the AX entry is on record as “ND (^ <4%)”. For the same compound, the HL result is reported as “ND (^ <4%)”, the MS result was “ND (^ <4%)” and the PS entry was “ND (^ <4%)”. In addition, the “MED (minimal effective dose)” value under setting [1] is reported as 1.0 mpk. Further, where the note is “hydrochloride, 3 mg/kg”, the AP entry is “++++ (≥74%)”, the CE entry is listed as “ND (^ <4%)”, the SH entry is “ND (^ <4%)” and the UK result is “ND (^ <4%)”.
As to `CNC1CCCc2ccsc2C1.Cl` (single isomer, unassigned) [Compound 26, N-methyl-5,6,7,8-tetrahydro-4H-cyclohepta[b]thiophen-7-amine hydrochloride], the AD entry is “ND (^ <4%)”, the AG result is given as “ND (^ <4%)”, the AN entry was “ND (^ <4%)” and the AX result is recorded as “ND (^ <4%)”. Further, the HL result is listed as “ND (^ <4%)”, the MS entry is recorded as “ND (^ <4%)” and the PS entry is reported as “ND (^ <4%)”. Besides, under setting [1], the “MED (minimal effective dose)” value stood at 3.0 mpk. Where the note is “hydrochloride, 3 mg/kg”, the AP result was “ND (^ <4%)”, the CE entry was “+ (≥4%)”, the SH entry is “+ (≥4%)” and the UK result is on record as “++ (≥24%)”.
Consider `CNC1CCc2cc(C)sc2C1` (single isomer, unassigned) [Compound 28, N, 2-dimethyl-4,5,6,7-tetrahydrobenzothiophen-6-amine hydrochloride], for which the AG entry is “ND (^ <4%)”, the AN result is “ND (^ <4%)”, the AX entry is listed as “++ (≥24%)” and the CE result was “ND (^ <4%)”. Besides, the HL entry is recorded as “ND (^ <4%)”, the MS result is recorded as “ND (^ <4%)”, the PS result was “ND (^ <4%)” and the SH entry was “ND (^ <4%)”. Also, the “MED (minimal effective dose)” value under setting [1] was found to be 3.0 mpk. For the same compound, for the setting “hydrochloride, 3 mg/kg”, the AD entry is reported as “+++ (≥49%)”, the AP result is reported as “ND (^ <4%)” and the UK entry was “ND (^ <4%)”.
Regarding `CNC1CCc2cc(C)sc2C1` (single isomer, unassigned) [Compound 29, N, 2-dimethyl-4,5,6,7-tetrahydrobenzothiophen-6-amine hydrochloride], the AG entry was “ND (^ <4%)”, the AN entry is reported as “ND (^ <4%)”, the AX result is reported as “++ (≥24%)” and the CE result is on record as “ND (^ <4%)”. In addition, the HL result is “ND (^ <4%)”, the MS result was “ND (^ <4%)”, the PS result is recorded as “ND (^ <4%)” and the SH result was “ND (^ <4%)”. Further, under setting [1], the “MED (minimal effective dose)” value stood at 1.0 mpk. In addition, where the note is “hydrochloride, 3 mg/kg”, the AD result is given as “ND (^ <4%)”, the AP result is reported as “+++ (≥49%)” and the UK result is “+ (≥4%)”.
Take `CNC1CCc2c(C)sc(C)c2C1` (single isomer, unassigned) [Compound 30, N, 1,3-trimethyl-4,5,6,7-tetrahydro-2-benzothiophen-5-amine hydrochloride]: the AD entry is “ND (^ <4%)”, the AG result is recorded as “ND (^ <4%)”, the AN entry was “ND (^ <4%)” and the CE result is recorded as “ND (^ <4%)”. Further, the HL entry is “ND (^ <4%)”, the MS result is reported as “ND (^ <4%)”, the PS entry is “ND (^ <4%)” and the UK entry is “ND (^ <4%)”. Also, under setting [1], the “MED (minimal effective dose)” value is given as 0.3 mpk. In addition, for the setting “hydrochloride, 3 mg/kg”, the AP result is recorded as “++++ (≥74%)”, the AX entry was “ND (^ <4%)” and the SH result is given as “+ (≥4%)”.
As to `CNC1CCc2c(C)sc(C)c2C1` (single isomer, unassigned) [Compound 31, N, 1,3-trimethyl-4,5,6,7-tetrahydro-2-benzothiophen-5-amine hydrochloride], the AD result was “ND (^ <4%)”, the AG result is on record as “ND (^ <4%)”, the AN entry was “ND (^ <4%)” and the CE entry was “ND (^ <4%)”. For the same compound, the HL entry was “ND (^ <4%)”, the MS entry was “ND (^ <4%)”, the PS entry is “ND (^ <4%)” and the UK entry is recorded as “ND (^ <4%)”. Besides, the “MED (minimal effective dose)” value under setting [1] is 3.0 mpk. Also, where the note is “hydrochloride, 3 mg/kg”, the AP result was “+++ (≥49%)”, the AX result is “++ (≥24%)” and the SH entry is given as “ND (^ <4%)”.
